Results: patent US20220193076A1, “METHODS OF TREATING BREAST CANCER WITH TUCATINIB” (Seagen Inc., priority 2019, published 2022)

Legend:
[1] = test system: CYP1A2; test: In vitro enzyme activity / mRNA induction in human hepatocytes; type: in vitro ADME
[2] = Example 2 Part D: single- and multiple-dose PK of tucatinib and ONT-993; type: in vivo, human; details: tucatinib 300 mg BID, Day 10 vs Day 4
Source text: Other noncompartmental PK parameters may be reported.

[3] = target: T1, MATE1 (Homo sapiens, UniProt Q96FL8); test: In vitro inhibition of MATE1 transporter; type: in vitro ADME
T1 sequence (Q96FL8 1-570): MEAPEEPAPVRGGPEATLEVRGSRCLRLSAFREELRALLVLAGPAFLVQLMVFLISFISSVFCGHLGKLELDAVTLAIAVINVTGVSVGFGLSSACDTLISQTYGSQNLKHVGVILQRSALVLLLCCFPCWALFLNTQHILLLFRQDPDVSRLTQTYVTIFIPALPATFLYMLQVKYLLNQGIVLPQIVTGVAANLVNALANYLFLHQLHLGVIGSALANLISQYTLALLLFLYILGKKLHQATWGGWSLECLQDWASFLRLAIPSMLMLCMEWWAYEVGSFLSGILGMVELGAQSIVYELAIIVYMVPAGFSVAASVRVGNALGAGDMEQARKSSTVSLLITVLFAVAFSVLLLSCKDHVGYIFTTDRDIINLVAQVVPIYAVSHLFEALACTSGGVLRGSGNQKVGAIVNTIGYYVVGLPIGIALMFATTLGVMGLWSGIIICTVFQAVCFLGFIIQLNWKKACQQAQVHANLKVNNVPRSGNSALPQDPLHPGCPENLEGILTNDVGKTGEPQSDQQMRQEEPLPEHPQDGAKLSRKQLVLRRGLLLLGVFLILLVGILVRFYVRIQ

[4] = target: P-glycoprotein (P-gp) (Homo sapiens, UniProt P08183); test: P-gp substrate assessment and inhibition of P-gp-mediated efflux of digoxin; type: in vitro ADME
Chain of P-glycoprotein (P-gp) (P08183 whole entry): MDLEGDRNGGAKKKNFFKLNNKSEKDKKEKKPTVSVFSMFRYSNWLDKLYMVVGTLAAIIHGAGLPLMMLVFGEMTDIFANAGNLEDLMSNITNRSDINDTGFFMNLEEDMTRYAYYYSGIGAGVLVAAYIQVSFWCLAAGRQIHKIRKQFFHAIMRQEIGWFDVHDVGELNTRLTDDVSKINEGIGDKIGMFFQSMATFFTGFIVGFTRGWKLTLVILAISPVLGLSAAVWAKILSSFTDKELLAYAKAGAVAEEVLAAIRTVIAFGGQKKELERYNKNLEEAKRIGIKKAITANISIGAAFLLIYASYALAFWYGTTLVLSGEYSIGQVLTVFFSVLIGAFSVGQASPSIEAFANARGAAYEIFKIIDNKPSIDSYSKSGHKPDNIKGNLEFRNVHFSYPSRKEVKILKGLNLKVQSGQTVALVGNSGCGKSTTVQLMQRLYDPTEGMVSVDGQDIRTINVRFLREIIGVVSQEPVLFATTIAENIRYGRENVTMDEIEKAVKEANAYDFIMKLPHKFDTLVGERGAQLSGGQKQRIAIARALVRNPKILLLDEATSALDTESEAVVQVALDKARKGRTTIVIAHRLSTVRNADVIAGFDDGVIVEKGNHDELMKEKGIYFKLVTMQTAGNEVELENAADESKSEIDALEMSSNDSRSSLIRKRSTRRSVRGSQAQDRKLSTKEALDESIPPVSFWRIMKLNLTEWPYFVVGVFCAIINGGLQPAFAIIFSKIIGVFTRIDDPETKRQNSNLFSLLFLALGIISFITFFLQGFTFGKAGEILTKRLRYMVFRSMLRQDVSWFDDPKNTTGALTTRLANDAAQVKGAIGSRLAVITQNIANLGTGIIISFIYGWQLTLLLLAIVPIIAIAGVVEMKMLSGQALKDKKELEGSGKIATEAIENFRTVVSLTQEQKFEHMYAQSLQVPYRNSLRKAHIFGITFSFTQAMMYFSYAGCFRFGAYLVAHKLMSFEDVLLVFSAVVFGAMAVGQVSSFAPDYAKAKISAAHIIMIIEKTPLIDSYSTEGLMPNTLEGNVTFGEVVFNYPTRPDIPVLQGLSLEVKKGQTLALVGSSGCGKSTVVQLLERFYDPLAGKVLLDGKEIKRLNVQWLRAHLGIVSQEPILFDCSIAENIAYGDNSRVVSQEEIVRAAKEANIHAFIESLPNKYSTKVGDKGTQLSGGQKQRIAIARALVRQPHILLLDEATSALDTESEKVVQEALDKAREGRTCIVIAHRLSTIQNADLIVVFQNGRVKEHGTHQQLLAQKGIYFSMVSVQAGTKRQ

[5] = target: T2, UGT1A1 (Homo sapiens, UniProt P22309); test: Ki determination in pooled human liver microsomes, β-estradiol 3-glucuronidation (Example 5); type: in vitro ADME
T2 construct: tissue BioreclamationIVT (Baltimore, Md.); host or cells: pooled human liver microsomes, 150 donors
T2 sequence (P22309 26-533): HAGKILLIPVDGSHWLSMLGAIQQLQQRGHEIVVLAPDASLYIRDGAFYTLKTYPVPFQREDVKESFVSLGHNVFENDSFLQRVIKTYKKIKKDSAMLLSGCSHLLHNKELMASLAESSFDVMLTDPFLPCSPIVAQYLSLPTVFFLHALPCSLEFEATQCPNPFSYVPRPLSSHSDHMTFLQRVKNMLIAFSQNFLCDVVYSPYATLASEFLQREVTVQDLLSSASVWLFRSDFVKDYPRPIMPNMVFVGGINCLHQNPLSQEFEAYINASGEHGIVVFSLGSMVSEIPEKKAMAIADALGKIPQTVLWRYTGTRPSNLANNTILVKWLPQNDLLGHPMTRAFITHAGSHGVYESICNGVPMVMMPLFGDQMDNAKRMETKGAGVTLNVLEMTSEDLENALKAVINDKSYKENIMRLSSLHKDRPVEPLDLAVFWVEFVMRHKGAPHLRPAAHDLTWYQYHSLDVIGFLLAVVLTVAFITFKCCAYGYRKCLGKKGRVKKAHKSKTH
Description: The objective of this study was to evaluate in vitro the Ki of tucatinib of the following human hepatic cytochrome P450 (CYP) enzymes (CYP2C8, CYP2C9, and CYP3A4) and UGT1A1. […] Pooled human liver microsomes (HLM) from 150 individuals (79 males and 71 females) were obtained from BioreclamationIVT (Baltimore, Md.) and stored at approximately −70° C. The microsomes were characterized by the supplier for total protein and selected cytochrome P450 activities. […] The final organic solvent contribution was ≤1%. Incubations were terminated by the addition of chilled acetonitrile containing a stable isotope-labeled internal standard. […] Samples were analyzed by liquid chromatography with tandem mass spectrometry (LC-MS/MS). Analyte concentrations were quantified by LC-MS/MS and interpolated from standard curves of authentic analyte. […] Activities were calculated based on analyte concentration, incubation time, and protein concentration. Enzymatic activity (pmol/minute/mg protein) was expressed as the formation of the analyte per final protein concentration per incubation time. Activity remaining was expressed as the enzymatic activity at each concentration point of the test article normalized by the solvent control mean activity. […]

[6] = Example 1: plasma tucatinib trough concentrations; type: in vivo, human; details: 300 mg tucatinib bid from Day 2

Cc1cc(Nc2ncnc3ccc(NC4=NC(C)(C)CO4)cc23)ccc1Oc1ccn2ncnc2c1 [tucatinib]
Induction of in vitro enzyme activity or messenger ribonucleic acid, CYP1A2 [1]: did not induce | Rac (accumulation ratio) after multiple dosing [2]: 1.85 | IC50 [3]: 340 nM | IC50 [4]: 10000 to 30000 nM | P-gp substrate status [4]: P-glycoprotein (P-gp) substrate | Inhibition mechanism, UGT1A1 [5]: competitive inhibition | Ki ([5]; marker substrate β-estradiol): 1810 nM | Steady-state plasma concentrations reached by [6]: ≤ 6 days
